Test results: patent publication US20260263593A1, “ALLERGY ANTIGEN AND EPITOPE THEREOF” (HOYU CO., LTD., priority 2018, published 2026)

The substances below were run on IgE antibody present in the serum of a shrimp-allergic patient (assay: Epitope mapping (1): array of overlapping 15-amino-acid peptides, chemiluminescence). Conditions: 15-amino-acid peptide array; serum of 37 patients; difference from N2nd value of 5 non-shrimp-allergic subjects at least 35,000.
Type: binding, human
Experimental: Epitope mapping was carried out using a library of overlapping peptides (length: 15 amino acids) corresponding to the amino acid sequences identified as allergy components of shrimp and the amino acid sequence of arginine kinase. Specifically, the library of overlapping peptides was prepared on the basis of the amino acid sequences of SEQ ID NOs: 117, 141, 146, 2, 45, 87, 276, 161, 230, 179, 362, 381, 399, 421, 455, 481, 486, 520, 541, 300 and 306, and arginine kinase.
The peptides to be synthesized were shifted by 10 amino acids.
For preparation of peptide arrays, the Intavis CelluSpots™ technique was used. Specifically, the peptide arrays were prepared by the following procedure: (1) synthesizing peptides of interest on amino-modified cellulose disks using an automated chemical synthesis apparatus (Intavis MultiPep RS), (2) dissolving the amino-modified cellulose disks to obtain a cellulose-bound peptide solution, and (3) spotting the cellulose-bound peptides onto coated glass slides. The details of each procedure are as described below.
Peptide synthesis was carried out in incremental steps through 9-fluorenylmethoxycarbonyl (Fmoc) chemical reaction on amino-modified cellulose disks in 384-well synthesis plates. Specifically, amino acids in which a Fmoc group is bonded to an amino group were activated in a solution of N,N′-diisopropylcarbodiimide (DIC) and 1-hydroxybenzotriazole (HOBt) in dimethylformamide (DMF) and added dropwise to the cellulose disks so that the Fmoc group-bound amino acids were bound to the amino groups on the cellulose disks (coupling). Unreacted amino groups were capped with acetic anhydride and washed with DMF. Furthermore, the Fmoc groups were eliminated from the amino groups of the amino acids bound to the amino groups on the cellulose disks by treatment with piperidine and washing with DMF. The amino acids bound to the amino groups on the cellulose disks were repetitively subjected to the coupling, the capping, and the Fmoc group elimination described above to elongate the amino terminus for peptide synthesis.
The peptides-bound cellulose disks of interest obtained above in the subsection titled “(1) Synthesis of peptide” were transferred to 96-well plates and treated with a side chain deprotection mixed solution of trifluoroacetic acid (TFA), dichloromethane, triisopropylsilane (TIPS), and water for deprotection of amino acid side chains. Then, the deprotected cellulose-bound peptides were dissolved in a mixed solution of TFA, trifluoromethanesulfonic acid (TFMSA), TIPS, and water and precipitated in tetrabutyl methyl ether (TBME), and the precipitate was resuspended in dimethyl sulfoxide (DMSO) and mixed with a mixed solution of NaCl, sodium citrate, and water to obtain a peptide solution for slide spotting.
The peptide solution for slide spotting obtained above in the subsection titled “(2) Dissolution of amino-modified cellulose disk” was spotted onto Intavis CelluSpots™ slides using Intavis Slide Spotting Robot, and the slides were dried to prepare peptide arrays.
The presence or absence of binding, to each peptide fragment, of an IgE antibody present in the serum of a shrimp-allergic patient was measured through antigen-antibody reaction using the peptide arrays. […]

Substance	Peptide bound to an IgE antibody in serum in a patient-specific manner
E48: common 15-residue IgE-binding epitope sequence of polypeptide (E48), troponin I-derived (EEIDRKKAEVRKRLE; VAR_SEQ 1..15 epitope) [Epitope E48]	bound to an IgE antibody in serum in a patient-specific manner
E17: common 15-residue IgE-binding epitope sequence of polypeptide (E17), pyruvate kinase 3-derived (PGNRIFVDDGLISLI; VAR_SEQ 1..15 epitope) [Epitope E17]	bound to an IgE antibody in serum in a patient-specific manner
E11: common 15-residue IgE-binding epitope sequence of polypeptide (E11), myosin heavy chain type 2-derived (RSLHEIEKNAKRFEI; VAR_SEQ 1..15 epitope) [Epitope E11]	bound to an IgE antibody in serum in a patient-specific manner
E16: common 15-residue IgE-binding epitope sequence of polypeptide (E16), pyruvate kinase 3-derived (NVRKAAQKYSDKIGH; VAR_SEQ 1..15 epitope) [Epitope E16]	bound to an IgE antibody in serum in a patient-specific manner
E50: common 15-residue IgE-binding epitope sequence of polypeptide (E50), cyclophilin A-derived (AADNQPVGRIVMELR; VAR_SEQ 1..15 epitope) [Epitope E50]	bound to an IgE antibody in serum in a patient-specific manner
E30: common 15-residue IgE-binding epitope sequence of polypeptide (E30), myosin heavy chain type 1-derived (MLEAKDDKKAATACF; VAR_SEQ 1..15 epitope) [Epitope E30]	bound to an IgE antibody in serum in a patient-specific manner
E44: common 15-residue IgE-binding epitope sequence of polypeptide (E44), hemocyanin subunit L1-derived (VRIFAWPHLDNNGIK; VAR_SEQ 1..15 epitope) [Epitope E44]	bound to an IgE antibody in serum in a patient-specific manner
E8: common 15-residue IgE-binding epitope sequence of polypeptide (E8), myosin heavy chain type 2-derived (LEEADNQINQLNNLK; VAR_SEQ 1..15 epitope) [Epitope E8]	bound to an IgE antibody in serum in a patient-specific manner
E27: common 15-residue IgE-binding epitope sequence of polypeptide (E27), myosin heavy chain type 1-derived (KLVTVKLPSGETKDF; VAR_SEQ 1..15 epitope) [Epitope E27]	bound to an IgE antibody in serum in a patient-specific manner
E13: common 15-residue IgE-binding epitope sequence of polypeptide (E13), glycogen phosphorylase-derived (EWVVHLDQLTKLKPL; VAR_SEQ 1..15 epitope) [Epitope E13]	bound to an IgE antibody in serum in a patient-specific manner
E32: common 15-residue IgE-binding epitope sequence of polypeptide (E32), myosin heavy chain type 1-derived (INELEIALDHANKAN; VAR_SEQ 1..15 epitope) [Epitope E32]	bound to an IgE antibody in serum in a patient-specific manner
E19: common 15-residue IgE-binding epitope sequence of polypeptide (E19), mitochondrial ATP synthase subunit alpha precursor-derived (VLSIGDGIARVYGLK; VAR_SEQ 1..15 epitope) [Epitope E19]	bound to an IgE antibody in serum in a patient-specific manner
E21: common 15-residue IgE-binding epitope sequence of polypeptide (E21), troponin I-derived (MADEEAKKKQEEIDR; VAR_SEQ 1..15 epitope) [Epitope E21]	bound to an IgE antibody in serum in a patient-specific manner
E10: common 15-residue IgE-binding epitope sequence of polypeptide (E10), myosin heavy chain type 2-derived (HFRIKAVYEENLEHL; VAR_SEQ 1..15 epitope) [Epitope E10]	bound to an IgE antibody in serum in a patient-specific manner
E45: common 15-residue IgE-binding epitope sequence of polypeptide (E45), pyruvate kinase 3-derived (WHKQLFTELSQQVHL; VAR_SEQ 1..15 epitope) [Epitope E45]	bound to an IgE antibody in serum in a patient-specific manner
E7: common 15-residue IgE-binding epitope sequence of polypeptide (E7), myosin heavy chain type 2-derived (AKSAMDSLARDKALA; VAR_SEQ 1..15 epitope) [Epitope E7]	bound to an IgE antibody in serum in a patient-specific manner
E12: common 15-residue IgE-binding epitope sequence of polypeptide (E12), glycogen phosphorylase-derived (LPEALERWPTSMLEH; VAR_SEQ 1..15 epitope) [Epitope E12]	bound to an IgE antibody in serum in a patient-specific manner
E15: common 15-residue IgE-binding epitope sequence of polypeptide (E15), hemocyanin subunit L1-derived (LIPKGNEQGLEFDLV; VAR_SEQ 1..15 epitope) [Epitope E15]	bound to an IgE antibody in serum in a patient-specific manner
E43: common 15-residue IgE-binding epitope sequence of polypeptide (E43), myosin heavy chain type 1-derived (EIDKRIQEKEEEFDA; VAR_SEQ 1..15 epitope) [Epitope E43]	bound to an IgE antibody in serum in a patient-specific manner
E9: common 15-residue IgE-binding epitope sequence of polypeptide (E9), myosin heavy chain type 2-derived (DQLATELDASQKECR; VAR_SEQ 1..15 epitope) [Epitope E9]	bound to an IgE antibody in serum in a patient-specific manner
E1: common 15-residue IgE-binding epitope sequence of polypeptide (E1), myosin heavy chain type 1-derived (ADIEVYLLEKARVIS; VAR_SEQ 1..15 epitope) [Epitope E1]	bound to an IgE antibody in serum in a patient-specific manner
E5: common 15-residue IgE-binding epitope sequence of polypeptide (E5), myosin heavy chain type 2-derived (GTMEELRDERLAKII; VAR_SEQ 1..15 epitope) [Epitope E5]	bound to an IgE antibody in serum in a patient-specific manner
E24: common 15-residue IgE-binding epitope sequence of polypeptide (E24), arginine kinase-derived (LFDPIIEDYHVGFKQ; VAR_SEQ 1..15 epitope) [Epitope E24]	bound to an IgE antibody in serum in a patient-specific manner
